# Measured values taken from US8969376B2, “Pyrazolopyrimidine compounds and their use as PDE10 inhibitors” (Mitsubishi Tanabe Pharma Corporation, priority 2010, dated 2015).
# Target: Bovine PDE10A (bPDE10A) (Bos taurus, UniProt A0A3Q1MHJ4)
# Test: Measurement of PDE10 inhibitory activity (PDE assay, radiolabeled nucleotide method), bovine enzyme
# Format: biochemical
# Settings: PDE10A of bovine (corpus striatum); substrate 3H-cAMP, final 7 nM; room temperature 90 min
# Source text: (§1) (1) Bovine PDE10A (bPDE10A) was isolated and prepared from bovine corpus striatum, according to the methods described in the reference Fujishige et al., Eur. J. Biochem., vol. 266, pp. 1118-1127, 1999. Human PDE10A (hPDE10A) was isolated from COS-7 cells transfected with plasmids coding for human PDE10A2, according to the methods described in the reference Kotera et al., Biochem. Biophys. Res. Commun., vol. 261, pp. 551-557, 1999. The enzyme solutions obtained were used for a PDE assay.
# (§2) The PDE assay was performed according to a modified method referred to a report of Kotera et al. (Kotera et al., Biochem. Pharmacol., vol. 60, pp. 1333-1341, 2000), by the radiolabeled nucleotide method.
# (§3) Specifically, the measurements of the inhibitory activities were carried out in the following method.
# (Method) The test compounds were dissolved in dimethyl sulfoxide (DMSO). 2 μL of the compound solution was added to 96 well plate, and the reaction mixture (20 μL of PDE enzyme solution in 50 mM Tris-HCl, pH 8.0, 40 μL of the assay buffer (50 mM Tris-HCl, pH 8.0, 2 mM MgCl2, 0.07% 2-mercaptoethanol, and 0.825 mg/mL bovine serum albumin), and 20 μL of 1 mg/mL snake venom in 50 mM Tris-HCl, pH8.0) was added to the 96 well plate. […] 50 μL of the eluate together with wash eluate with additional 100 μL methanol was collected in another plate and the radioactivity was measured. […]
# Bovine PDE10A (bPDE10A), sequence (A0A3Q1MHJ4 1-1068): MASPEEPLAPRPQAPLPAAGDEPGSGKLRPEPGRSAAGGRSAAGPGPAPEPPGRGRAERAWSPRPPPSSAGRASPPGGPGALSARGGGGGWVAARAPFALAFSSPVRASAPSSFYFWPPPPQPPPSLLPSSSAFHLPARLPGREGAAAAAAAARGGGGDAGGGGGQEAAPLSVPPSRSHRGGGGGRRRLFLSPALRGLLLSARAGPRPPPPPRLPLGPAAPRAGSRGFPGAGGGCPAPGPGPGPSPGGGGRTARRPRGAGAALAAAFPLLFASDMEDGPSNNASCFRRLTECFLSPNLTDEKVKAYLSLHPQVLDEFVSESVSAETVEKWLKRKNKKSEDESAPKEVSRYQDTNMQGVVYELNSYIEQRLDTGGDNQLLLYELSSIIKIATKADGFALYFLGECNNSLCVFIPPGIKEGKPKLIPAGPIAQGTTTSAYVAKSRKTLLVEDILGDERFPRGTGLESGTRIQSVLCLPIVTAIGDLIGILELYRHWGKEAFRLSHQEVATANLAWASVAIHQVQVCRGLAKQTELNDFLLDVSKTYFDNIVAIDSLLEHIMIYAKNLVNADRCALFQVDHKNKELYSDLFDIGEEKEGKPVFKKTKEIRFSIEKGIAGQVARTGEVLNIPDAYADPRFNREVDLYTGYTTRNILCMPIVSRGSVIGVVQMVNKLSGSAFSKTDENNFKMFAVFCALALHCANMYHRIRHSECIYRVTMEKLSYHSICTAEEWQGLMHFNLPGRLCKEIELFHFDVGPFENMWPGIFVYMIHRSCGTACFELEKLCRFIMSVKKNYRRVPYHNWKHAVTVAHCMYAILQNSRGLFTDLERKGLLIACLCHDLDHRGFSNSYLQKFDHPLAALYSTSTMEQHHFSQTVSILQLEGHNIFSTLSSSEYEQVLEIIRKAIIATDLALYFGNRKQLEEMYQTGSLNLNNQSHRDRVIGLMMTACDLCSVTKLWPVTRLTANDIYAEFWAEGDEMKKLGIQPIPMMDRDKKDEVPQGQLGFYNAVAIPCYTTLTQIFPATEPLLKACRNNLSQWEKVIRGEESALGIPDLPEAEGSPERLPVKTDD
row,IC50,Compound
1,0.019 nM,"COCCN(CCOC)c1cc(N2CCCC2)nc2cc(-c3nc4cc(C)ccc4nc3C)nn12 [Example 1.050, 2-(3,7-dimethylquinoxalin-2-yl)-N,N-bis(2-methoxyethyl)-5-pyrrolidin-1-ylpyrazolo[1,5-a]pyrimidin-7-amine]"

# Target: Human PDE10A (hPDE10A) (Homo sapiens (Human), UniProt Q9Y233)
# Test: Measurement of PDE10 inhibitory activity (PDE assay, radiolabeled nucleotide method), human enzyme
# Format: biochemical
# Settings: PDE10A of human (PDE10A2 expressed in COS-7 cells); substrate 3H-cAMP, final 7 nM; room temperature 90 min
# Source text: as §1, §2, §3
# (Method) The test compounds were dissolved in dimethyl sulfoxide (DMSO). 2 μL of the compound solution was added to 96 well plate, and the reaction mixture (20 μL of PDE enzyme solution in 50 mM Tris-HCl, pH 8.0, 40 μL of the assay buffer (50 mM Tris-HCl, pH 8.0, 2 mM MgCl2, 0.07% 2-mercaptoethanol, and 0.825 mg/mL bovine serum albumin), and 20 μL of 1 mg/mL snake venom in 50 mM Tris-HCl, pH8.0) was added to the 96 well plate. The enzyme reaction was started by adding and mixing with substrate solution of 20 μL containing approximate 35 nM ^3H-cAMP in 50 mM Tris-HCl, pH 8.0. The final concentration of cAMP in the reaction mixtures was 7 nM. The reaction mixtures were incubated at room temperature for 90 min. After incubation, the reaction was stopped by adding 100 μL of methanol and resultant solutions were applied to filter plate containing Dowex (1×8 200-400) and centrifuged. 50 μL of the eluate together with wash eluate with additional 100 μL methanol was collected in another plate and the radioactivity was measured.
# (2) The compounds in the Examples below were tested for PDE inhibition using the Method described above.
# Human PDE10A (hPDE10A), sequence (Q9Y233 267-1055): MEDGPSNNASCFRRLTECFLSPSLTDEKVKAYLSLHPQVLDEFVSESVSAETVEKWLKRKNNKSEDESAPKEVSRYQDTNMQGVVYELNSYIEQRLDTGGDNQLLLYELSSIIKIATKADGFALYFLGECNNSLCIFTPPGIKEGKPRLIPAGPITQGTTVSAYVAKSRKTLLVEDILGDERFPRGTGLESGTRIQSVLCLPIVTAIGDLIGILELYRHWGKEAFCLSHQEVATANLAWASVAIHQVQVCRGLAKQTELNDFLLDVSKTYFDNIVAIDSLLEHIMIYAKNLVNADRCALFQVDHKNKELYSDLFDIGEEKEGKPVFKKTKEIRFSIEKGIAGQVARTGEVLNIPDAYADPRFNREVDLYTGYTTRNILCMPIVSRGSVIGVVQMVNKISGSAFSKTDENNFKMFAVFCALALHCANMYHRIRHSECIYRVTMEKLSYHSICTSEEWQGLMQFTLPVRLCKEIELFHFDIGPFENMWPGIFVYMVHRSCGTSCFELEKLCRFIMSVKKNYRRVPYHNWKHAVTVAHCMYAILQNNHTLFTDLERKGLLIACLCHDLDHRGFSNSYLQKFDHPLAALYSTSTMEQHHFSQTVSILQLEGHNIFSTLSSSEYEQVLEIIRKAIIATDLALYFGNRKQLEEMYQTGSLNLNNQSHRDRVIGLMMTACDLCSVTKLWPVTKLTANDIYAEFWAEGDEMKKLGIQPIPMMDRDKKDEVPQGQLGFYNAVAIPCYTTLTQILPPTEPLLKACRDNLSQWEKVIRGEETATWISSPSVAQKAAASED
row,Compound,IC50
1,"Cc1cn2nccc2nc1-c1cc2nc(N3CCCC3)cc(NCC(C)(C)O)n2n1 [Example 1.184, 2-methyl-1-[(6′-methyl-5-pyrrolidin-1-yl-2,5′-bipyrazolo[1,5-a]pyrimidin-7-yl)amino]propan-2-ol]",2.5 nM
2,"Cc1nc2c(nc1-c1cc3nc(N4CCCC4)cc(NCC(C)(C)O)n3n1)CCCO2 [Example 1.198, 2-methyl-1-{[2-(3-methyl-7,8-dihydro-6H-pyrano[2,3-b]pyrazin-2-yl)-5-pyrrolidin-1-ylpyrazolo[1,5-a]pyrimidin-7-yl]amino}propan-2-ol]",0.82 nM
3,"Cc1nc(C)c(C2CC2)nc1-c1cc2nc(N3CCCC3)cc(NCC(C)(C)O)n2n1 [Example 1.189, 1-{[2-(6-cyclopropyl-3,5-dimethylpyrazin-2-yl)-5-pyrrolidin-1-ylpyrazolo[1,5-a]pyrimidin-7-yl]amino}-2-methylpropan-2-ol]",0.18 nM
4,"Cc1nc2c(nc1-c1cc3nc(N4CCCC4)cc(N[C@H]4CC[C@](C)(O)CC4)n3n1)CCCO2 [Example 1.173, trans-1-methyl-4-{[2-(3-methyl-7,8-dihydro-6H-pyrano[2,3-b]pyrazin-2-yl)-5-pyrrolidin-1-ylpyrazolo[1,5-a]pyrimidin-7-yl]amino}cyclohexanol]",0.27 nM
5,"Cc1nc(C)c(-c2cc3nc(N4CCCC4)cc(NCC(C)(C)O)n3n2)nc1CC(C)C [Example 1.187, 1-{[2-(6-isobutyl-3,5-dimethylpyrazin-2-yl)-5-pyrrolidin-1-ylpyrazolo[1,5-a]pyrimidin-7-yl]amino}-2-methylpropan-2-ol]",0.6 nM
6,"Cc1nc2ccncc2nc1-c1cc2nc(N3CCCC3)cc(NC3CCOCC3)n2n1 [Example 5.001, 2-(2-methylpyrido[3,4-b]pyrazin-3-yl)-5-pyrrodin-1-yl-N-(tetrahydro-2H-pyran-4-yl)pyrazolo[1,5-a]pyrimidin-7-amine]",0.15 nM
7,"Cc1nc(C)c(C2CC2)nc1-c1cc2nc(N3CCCC3)cc(NC3CCOCC3)n2n1 [Example 1.190, 2-(6-cyclopropyl-3,5-dimethylpyrazin-2-yl)-5-pyrrolidin-1-yl-N-(tetrahydro-2H-pyran-4-yl)pyrazolo[1,5-a]pyrimidin-7-amine]",0.69 nM
8,"Cc1nc2c(nc1-c1cc3nc(N4CCCC4)cc(NC4CCOCC4)n3n1)CCCO2 [Example 1.197, 2-(3-methyl-7,8-dihydro-6H-pyrano[2,3-b]pyrazin-2-yl)-5-pyrrolidin-1-yl-N-(tetrahydro-2H-pyran-4-yl)pyrazolo[1,5-a]pyrimidin-7-amine]",2.5 nM
9,"CCCc1cnc(C)c(-c2cc3nc(N4CCCC4)cc(N(C)C4CCOCC4)n3n2)n1 [Example 1.181, N-methyl-2-(3-methyl-6-propylpyrazin-2-yl)-5-pyrrolidin-1-yl-N-(tetrahydro-2H-pyran-4-yl)pyrazolo[1,5-a]pyrimidin-7-amine]",0.64 nM
10,"Cc1nc2ccc(F)cc2nc1-c1cc2nc(N3CC[C@H](F)C3)cc(N[C@H]3CC[C@@](C)(O)CC3)n2n1 [Example 1.175, cis-4-({2-(7-fluoro-3-methylquinoxalin-2-yl)-5-[(3R)-3-fluoropyrrolidin-1-yl]pyrazolo[1,5-a]pyrimidin-7-yl}amino)-1-methylcyclohexanol]",0.12 nM
11,"Cc1nc2cnccc2nc1-c1cc2nc(N3CCCC3)cc(NC3CCOCC3)n2n1 [Example 5.002, 2-(3-methylpyrido[3,4-b]pyrazin-2-yl)-5-pyrrolidin-1-yl-N-(tetrahydro-2H-pyran-4-yl)pyrazolo[1,5-a]pyrimidin-7-amine]",0.28 nM
12,"CO[C@H]1CC[C@H](Nc2cc(N3CCCC3)nc3cc(-c4nc5c(nc4C)OCCC5)nn23)CC1 [Example 1.199, N-(trans-4-methoxycyclohexyl)-2-(3-methyl-7,8-dihydro-6H-pyrano[2,3-b]pyrazin-2-yl)-5-pyrrolidin-1-ylpyrazolo[1,5-a]pyrimidin-7-amine]",0.89 nM
